“Also recorded” adds a separate entry of the source.
What was measured:
[1] = Calculated free (protein-unbound) drug levels in CSF, law of mass action; type: in vivo, human; conditions: law of mass action approach; for fraction unbound: human, CSF, oral, read-out: unbound fraction of the total drug amount measured in CSF
From the text: Directly measuring free drug levels in CSF may be impossible due to low drug concentrations. Besides the experimental quantitation, if feasible, also the law of mass action can be used to predict protein-unbound drug levels. Accordingly, CSF proteins and associated drugs may be considered as center and ligand, forming a complex. Consequently, we applied the corresponding mathematical model to estimate free drug concentration. The derivation is given in further detail in the supplementary material.

[2] = CSF drug concentration in pediatric brain tumor patients, Ommaya reservoir samples, HPLC-QqQ MS; type: in vivo, human; conditions: for CSF penetrance class: CSF concentration class; for CSF concentration, mean: total drug, steady state; for CSF concentration, mean / detection in CSF samples: oral dosing, pediatric brain tumor patients
Method: Samples were obtained from patients treated at the Department of Pediatrics and Adolescent Medicine at the General Hospital of Vienna and the study was approved by the ethics committee of the Medical University of Vienna. Patient characteristics (age, weight, sex) and clinical data (tumor type, medication, radiotherapy, localization, leptomeningeal disease, serum protein levels, and CSF protein levels) were retrieved from patient charts. Clinical and serum parameters were measured within the same treatment cycle, CSF protein levels at the same date and sample collection time point. Samples were collected and snap frozen within routine clinical sampling during intraventricular chemotherapy administration.
We included samples of patients who received oral small molecule inhibitors and concomitant intraventricular therapy. […] As backbone therapy the majority of patients were treated according to the MEMMAT protocol (NCT01356290) with slight modifications in some cases as indicated in Additional file 1: Table S1. Dosing for pediatric patients was adjusted according to the treatment protocols or previous reports as outlined in Table 1. […] In two cases, samples of patients being sequentially treated with different drugs were collected as indicated in Additional file 1: Table S2. […] CSF samples (< 0.5 mL) of pediatric patients were collected using an Ommaya reservoir, immediately snap frozen and afterwards stored at − 80 °C prior to HPLC-MS analysis. Figure 1 gives general information on the workflow of CSF sample collection, sample preparation and HPLC-MS analysis. Detailed information on the analysis method and the working parameters of the HPLC-MS system(s) can be found in the supplementary material available online (Additional file 1: Figures S1 and S2 and Tables S3–4).
In a first step, we determined whether CSF samples from Ommaya reservoirs analyzed with HPLC-QqQ MS or HPLC-IMS-Q-TOF MS allow reliable detection of orally administered drugs and the respective metabolites. For that purpose, special focus was on the improvement of an HPLC-QqQ MS multi-method to quantitate the respective substances in CSF samples. The applied chromatographic gradient as well as the sensitivity of the MS detection were optimized to allow a quantitation of all mentioned analytes within one run and over a broad range of analyte concentration levels (800 ng L^− 1 to 250 μg L^− 1).
Table S2 Sequential therapies of the investigated drugs in the study cohort. The period to the prior drug is indicated in brackets.
Selleckchem (Houston, TX, USA). Standards were originally prepared as a 10 mM DMSO solution, but were further diluted with methanol to obtain stock solutions containing analyte concentrations of 10 mg L-1 and were stored at 4 °C. The internal standard (ISTD) carbamazepine (> 98 %) was obtained from Sigma-Aldrich Handels GmbH (Vienna, Austria) and used as a methanolic stock solution with a concentration of 2 g L-1, which was diluted as needed.
Succinanilic acid (p.a.) was purchased from Sigma-Aldrich Handels GmbH (Vienna, Austria) diluted to a 400 mg L-1 methanolic stock solution and stored at 4 °C.
All used solvents were HPLC grade and were purchased from VWR International GmbH (Darmstadt, […]
Formic acid (≥ 96 %) was purchased from Sigma-Aldrich Handels GmbH (Vienna, Austria).
Water was used in Millipore quality obtained from a Millipore purification system (Molsheim, France).
CSF samples (< 0.5 mL) of pediatric patients receiving cancer therapy drugs were collected using an Ommaya reservoir, and were stored at -80 °C prior to further analysis.

ABCB1 = test: Intracellular drug accumulation in ABCB1-overexpressing KB-C1 cells with or without elacridar (ABCB1 substrate testing), HPLC-QqQ MS; type: cell-based; conditions: fold-change of drug accumulation upon ABCB1-inhibition with elacridar, Fig. 4 coding: > 2 fold-control unfavorable, 1–2 intermediate, < 1 favorable
Method: We first compared interaction of the investigated drugs with ABCB1 by measuring fluorescent substrate drug accumulation in the parental KB-3-1 (a HeLa cell derivative) cell model and its isogenic ABCB1-overexpressing KB-C1 cell model, as previously published. As a known fluorescent ABCB1 substrate calcein (derived from non-fluorescent calcein AM) was used in the presence of investigated drugs (1 μM and 10 μM) using fluorescence-activated cell sorting (FACS). The ABCB1 inhibitor elacridar was used as positive control. As this approach cannot distinguish competitive (by a substrate) and non-competitive (by a pure inhibitor) ABCB1 inhibition, KB-C1 cells were additionally exposed to the examined drugs with or without elacridar to test the actual impact of ABCB1 activity on the concentration of drug within the cells. In detail, cultivated cells were grown, washed, lysed using 100 μL methanol, centrifuged and stored at − 80 C prior to analysis. […] Finally, 100 μL supernatant were collected and analyzed using the developed HPLC-QqQ MS method (see Supplementary Material).
6. Experiments with ABCB1-overexpressing KBC1 cells
Experiments were conducted to test for a possible inhibition or substrate character of the investigatzed […]
Figure S8 ABCB1 testing. (A) Calcein accumulation assay in KB-3-1 (control) and ABCB1-overexpressing KBC1 cells. Bars depict calcein fluorescence intensity measured by fluorescence activated cell sorting (FACS). Higher bars as compared to calcein in ABCB1-overexpressing cells indicate ABCB1-inhibition. Elacridar served as positive control. (B) Accumulation of drugs upon ABCB1-inhibition with elacridar measured by HPLC-QqQ MS.
(without elacridar inhibition).
(1 picture or pasted object on this page, not shown here)

[3] = metabolites detected in CSF; cited from earlier work
[4] = Detection of drug metabolites in patient CSF, HPLC-IMS-Q-TOF MS with in silico metabolite prediction; type: in vivo, human
From the text: In a next step, theoretical molecular formulas and related ion masses of the predicted metabolites were transferred into a database and compared to measured high-resolution Q-TOF mass spectra of biological samples. For that purpose, MassHunter Qualitative Workflows B.08.00 software (Agilent Technologies, Santa Clara, California) was used, as it enables (semi)-automated data processing. Within this procedure, theoretical and measured exact ion masses and abundances of isotopologues and molecule-cation adducts were compared. The results of this comparison were then used to evaluate the validity of the identification, which is expressed as a score. This quality measure is important as it reduces the risk of false positives that are likely in complex biological samples, especially when only the accurate mass of a molecule is used. […]
(§1) Metabolite detection and determination of collision cross sections was performed using an IMS-Q-TOF MS within a mass range of 100 – 1700 m/z in QTOF-only and IMS mode respectively. Ionization was again obtained by the means of positive electrospray ionization using 5 L min-1 of nitrogen stream with 300 °C for drying, a capillary voltage of 3.5 kV and a nebulizer pressure of 35 psig. Further parameters included a sheath gas flow of 11 L min-1 at 350 °C and a nozzle voltage of 1 kV. The fragmentor voltage was set to 400 V. Ion mobility experiments were performed with a maximal drift time of 60 ms at a frame rate of 0.9 frames per second resulting in a total of 600 TOF-transients within one frame. Data processing was achieved using IM-MS Browser B.08.00 from Agilent Technologies on the basis of ion

[5] = Matched serum sample to prove oral uptake of nintedanib, HPLC-MS; type: in vivo, human; conditions: one time point, patient #4
[6] = cited from earlier work
[7] = Collision cross section by HPLC-IMS-Q-TOF MS; type: physicochemical
From the text: Data processing was achieved using MassHunter Workstation Software B.05.02 from Agilent […]
for quantitation, including all transitions and corresponding collision energies as well as fragmentor voltages and retention times.
Table S3 Overview of the used QqQ transitions for quantitative and qualitative characterization in Dynamic MRM Mode using 7 V of cell acceleration voltage, 500 ms cycle time and positive polarization within an Agilent 6420 QqQ.
Compound Precursor Ion Product Ion / r.t. / min Fragmentor / Collision […]
as §1

| fraction unbound [1] | calculated free, unbound CSF concentration, mean [1] [nM] | CSF penetrance class [2] | CSF concentration, mean [2] [nM] | ABCB1 substrate evaluation (ABCB1) | Structure (SMILES) | Active / Inactive (biological activity of metabolite) [3] | metabolite identification in CSF [4] | also measured |
| --- | --- | --- | --- | --- | --- | --- | --- | --- |
| – | – | – | – | – | Cc1ccc(NC(=O)c2ccc(CN3CCNCC3)cc2)cc1Nc1nccc(-c2cccnc2)n1 [demethylated imatinib] | active | identified | – |
| – | – | – | – | – | CNC(=O)c1cc2cnc(Nc3ccc(N4CCNCC4)cn3)nc2n1C1CCCC1 [demethylated ribociclib] | active | identified | – |
| – | – | – | – | – | O=C(CCCCCCC(=O)Nc1ccccc1)NO[C@@H]1O[C@H](C(=O)O)[C@@H](O)[C@H](O)[C@H]1O [glucuronidated vorinostat] | inactive | identified | – |
| – | – | – | – | intermediate | COC(=O)c1ccc2c(c1)NC(=O)/C2=C(\Nc1ccc(N(C)C(=O)CN2CCN(C)CC2)cc1)c1ccccc1 [nintedanib] | – | – | detection in CSF samples [2]: not detected; also recorded: not identified; serum concentration [5]: 30 nM |
| – | – | – | – | highly transported by ABCB1 | Cc1[nH]c2ccccc2c1CCNCc1ccc(/C=C/C(=O)NO)cc1 [panobinostat] | – | – | detection in CSF samples [2]: not detected; also recorded: untraceable; panobinostat levels in a published study ([6]; children, higher panobinostat doses): below the detection limit; half-life [6]: 31 h |
| < 0.6 | 3.9 | moderate (moderate (1–10 nM)) | 6.7 | most favorable | CNC(=O)c1cc(Oc2ccc(NC(=O)Nc3ccc(Cl)c(C(F)(F)F)c3)c(F)c2)ccn1 [regorafenib] | – | – | CCS value relative to that expected from the MW [7]: significantly lower; protein binding in serum ([6]; serum): 99.5% |
| ~0.99 | 43.5 | high (high (> 10 nM)) | 44.1 | intermediate | CN(C)C(=O)c1cc2cnc(Nc3ccc(N4CCNCC4)cn3)nc2n1C1CCCC1 [ribociclib] | – | – | level detected in CSF of our patient ([2]; pediatric patient, 3.33 mg/kg daily, as quoted in discussion): 43 nM |
| – | – | – | – | – | O=C(O)CCC(=O)Nc1ccccc1 [succinanilic acid] | inactive | identified; also recorded: high concentrations | – |
| ~0.99 | 75.3 | high (high (> 10 nM)) | 75.4 | most favorable | O=C(CCCCCCC(=O)Nc1ccccc1)NO [vorinostat] | – | – | – |

| Structure (SMILES) | fraction unbound [1] | calculated free, unbound CSF concentration, mean [1] [nM] | CSF penetrance class [2] | CSF concentration, mean [2] [nM] | ABCB1 substrate evaluation (ABCB1) | Active / Inactive (biological activity of metabolite) [3] | metabolite identification in CSF [4] | also measured |
| --- | --- | --- | --- | --- | --- | --- | --- | --- |
| Cc1nc(Nc2ncc(C(=O)Nc3c(C)cccc3Cl)s2)cc(N2CCN(CCO)CC2)n1 [dasatinib] | ~0.99 | 1 | moderate (moderate (1–10 nM)) | 1.2 | highly transported by ABCB1 | – | – | proportion of CSF samples in which the drug was detected ([2]; CSF samples of pediatric patients): 66% |
